The experiment addresses T1, human FXR (Homo sapiens, UniProt Q96RI1).
T1 sequence (Q96RI1 262-486 limits assumed): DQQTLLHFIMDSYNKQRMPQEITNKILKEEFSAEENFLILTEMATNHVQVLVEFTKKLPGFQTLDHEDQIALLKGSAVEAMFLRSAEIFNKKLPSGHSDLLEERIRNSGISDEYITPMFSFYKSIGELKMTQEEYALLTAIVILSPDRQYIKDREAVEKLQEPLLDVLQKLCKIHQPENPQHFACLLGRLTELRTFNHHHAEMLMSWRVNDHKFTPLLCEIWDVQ
In words: transient human FXR/Gal4-luciferase reporter assay (HLE GAL-FXR). The following applies: HEK293 cells. A general note: Reporter assays use an easily measured gene product as a stand-in for the process of interest.

Where [1] appears, read: FXR EC50 (nM), Gal4-hFXR fusion reporter, Table 1.
[2] abbreviates: HLE GAL-FXR EC50, Gal4-hFXR fusion reporter.

Procedure: A Gal4-hFXR fusion construct reporter system was used as the primary assay to characterize compound activity. A construct including 5 copies of the Gal4 promoter response element upstream of a firefly luciferase reporter cDNA was stably expressed in HEK293 cells. This reporter cell line was maintained in Dulbecco's Modified Eagle's medium (DMEM; Gibco) supplemented with 1% penicillin-streptomycin (P/S) solution, 500 μg/mL Zeocin and 10% charcoal/dextran-treated fetal bovine serum (cs-FBS) at 37° C. in a humidified 5% CO2 atmosphere. Another plasmid was constructed in which the human cytomegalovirus promoter in the pcDNA3.1 vector directs the expression of the cDNA encoding a fusion protein comprised of the DNA binding domain from the Gal4 transcription factor fused to the ligand binding domain from human FXR.
For compound testing, 100 nL of the compounds (serial dilutions in DMSO) are dispensed with an Echo acoustic dispenser (Labcyte) into the wells of a Corning/Costar clear bottom 384-well white plate. The transfected cells are harvested, counted, and diluted such that 10-25,000 cells in 25 μL are plated into each well of the 384-well compound assay plate. The compound-treated cells are incubated overnight at 37° C. in a humidified 5% CO2 atmosphere. The next morning 25 μL of Steady-Glo (Promega) are added to each well of the plate, the mixture is incubated for 15 min. with shaking, and luminescence is measured on an Envision (Perkin Elmer) plate reader.

A word on the EC50: it is the concentration that produces a half-maximal response. A low value points to a more potent agent. In the case of `CC1(/C=C/c2c(-c3c(Cl)cccc3Cl)noc2C2CC2)CCN(c2ccc(C(=O)O)cn2)CC1` [Example 34], the midpoint of the response under setting [1], the EC50, lay at 403 nM.
Take `C/C(=C\c1c(-c2c(Cl)cccc2Cl)noc1C1CC1)C1CCN(c2ccc3nc(C(=O)O)ccc3c2)CC1` [Example 5, (E)-6-(4-(1-(5-Cyclopropyl-3-(2,6-dichlorophenyl)isoxazol-4-yl)prop-1-en-2-yl)piperidin-1-yl)quinoline-2-carboxylic acid]: the EC50 under setting [2] was determined as 1250 nM.
As to `Cn1cc(C(=O)O)c2ncc(N3CC4C(/C=C/c5c(-c6c(Cl)cncc6Cl)noc5C5CC5)C4C3)cc21` (stereo not shown) [Example 209], the EC50 under setting [1] worked out at 472 nM.
On the same count and under the same terms, then `COc1c(C(=O)O)cccc1-c1nc(N2CC3C(/C=C/c4c(-c5c(Cl)cncc5Cl)noc4C4CC4)C3C2)no1` (stereo not shown) [Example 168], with 1100 nM; and `O=C(O)c1nc(C(F)(F)F)n2cc(N3CCC(/C=C/c4c(-c5c(Cl)cccc5Cl)noc4C4CC4)CC3)ccc12` [Example 39], with 5 nM; and `O=C(O)c1cnc(N2CCC(/C=C/c3c(-c4c(Cl)cccc4Cl)noc3C3CC3)CC2)c(F)c1` [Example 21], with 20 nM.
Regarding `Cn1cc(C(=O)O)c2cnc(N3CCC(/C=C/c4c(-c5c(Cl)cccc5Cl)noc4C4CC4)CC3)nc21` [Example 19], under setting [1], the EC50 amounted to 194 nM.
Still for that read-out and setting: under `O=C(O)c1cnc2cc(N3CC(/C=C/c4c(-c5c(Cl)cncc5Cl)noc4C4CC4)C3)ccc2n1` [Example 167] stands 308 nM; under `O=C(O)c1ccc2nc(N3CCC(/C=C/c4c(-c5c(Cl)cccc5Cl)noc4C4CC4)CC3)ccc2c1` [Example 33], 15 nM.
Same read-out and setting: then `O=C(O)c1cccc2nc(N3CC4C(/C=C/c5c(-c6c(Cl)cncc6Cl)noc5C5CC5)C4C3)sc12` (stereo not shown) [Example 93], with 280 nM.
`O=C(O)c1cc(-c2nc(N3CC4C(/C=C/c5c(-c6c(Cl)cncc6Cl)noc5C5CC5)C4C3)no2)cc(C(F)(F)F)c1` (stereo not shown) [Example 123]: the EC50 under setting [1] worked out at 206 nM.
On the same count and under the same terms, under `O=C(O)c1cc2ccc(N3CC4C(/C=C/c5c(-c6c(Cl)cncc6Cl)noc5C5CC5)C4C3)cc2cn1` (stereo not shown) [Example 73] stands 673 nM.
Still for that read-out and setting: then `O=C(O)C1(c2ccc(N3CCC(/C=C/c4c(-c5c(Cl)cccc5Cl)noc4C4CC4)CC3)cc2)CC1` [Example 59], with 214 nM.
As to `O=C(O)c1ccc(N2CCC(/C=C/c3c(-c4c(Cl)cccc4Cl)noc3C3CC3)CC2)nc1` [Example 1, (E)-6-(4-(2-(5-Cyclopropyl-3-(2,6-dichlorophenyl)isoxazol-4-yl)vinyl)piperidin-1-yl)nicotinic acid], the EC50 under setting [2] turned out to be 14 nM.
`O=C(O)c1cc(OC2CC2)c2cc(N3CC(/C=C/c4c(-c5cccnc5C(F)(F)F)noc4C4CC4)C3)ccc2n1` [Example 178] registered an EC50 under setting [1] of 37 nM.
Same read-out and setting: then `O=C(O)c1nsc2cc(N3CC4C(/C=C/c5c(-c6c(Cl)cncc6Cl)noc5C5CC5)C4C3)ccc12` (stereo not shown) [Example 95], with 108 nM.
As to `NC(=O)c1cc(OC2CC2)c2cc(N3CC4C(/C=C/c5c(-c6ccccc6C(F)(F)F)noc5C5CC5)C4C3)ccc2n1` (stereo not shown) [Example 183, (E)-4-Cyclopropoxy-6-(6-(2-(5-cyclopropyl-3-(2-(trifluoromethyl)phenyl)-isoxazol-4-yl)vinyl)-3-azabicyclo[3.1.0]hexan-3-yl)quinoline-2-carboxamide], the response under setting [2] was half-maximal at 908 nM (EC50).
Compound `O=C(O)c1ccc(N2CC3C(/C=C/c4c(-c5c(Cl)cncc5Cl)noc4C4CC4)C3C2)cc1` (stereo not shown) [Example 96] came in with an EC50 under setting [1] of 66 nM.
Regarding `O=C(O)c1ccc(-c2nc(N3CC4C(/C=C/c5c(-c6c(Cl)cncc6Cl)noc5C5CC5)C4C3)no2)cc1` (stereo not shown) [Example 116, (E)-4-(3-(6-(2-(5-Cyclopropyl-3-(3,5-dichloropyridin-4-yl)isoxazol-4-yl)vinyl)-3-azabicyclo[3.1.0]hexan-3-yl)-1,2,4-oxadiazol-5-yl)benzoic acid], under setting [2], the EC50 worked out at 862 nM.
In turn, `CC(C)Oc1cc(C(=O)O)nc2ccc(N3CCC(/C=C/c4c(-c5ccncc5C(F)(F)F)noc4C4CC4)CC3)cc12` [Example 110] yielded an EC50 under setting [1] of 5 nM.
The same measure, in the same setting: then `O=C(O)c1cc(O[C@H]2C[C@@H](F)C2)c2cc(N3CC4C(/C=C/c5c(-c6ccccc6C(F)(F)F)noc5C5CC5)C4C3)ccc2n1` (stereo partly shown) [Example 185], with 11 nM; and `Cn1cc(C(=O)O)c2ccc(N3CC4C(/C=C/c5c(-c6c(Cl)cncc6Cl)noc5C5CC5)C4C3)cc21` (stereo not shown) [Example 89], with 31 nM.
On the same count and under the same terms, then `O=C(O)c1cc(OC2CCC2)c2cc(N3CC(/C=C/c4c(-c5cccnc5C(F)(F)F)noc4C4CC4)C3)ccc2n1` [Example 170], with 50 nM; and `O=C(O)Cc1ccnc(N2CCC(/C=C/c3c(-c4c(Cl)cccc4Cl)noc3C3CC3)CC2)c1` [Example 40], with 947 nM; and `Cc1cc(C(=O)O)nc2sc(N3CCC(/C=C/c4c(-c5c(Cl)cncc5Cl)noc4C4CC4)CC3)nc12` [Example 112], with 155 nM.
The same measure, in the same setting: under `COc1cc(C(=O)O)cc(-c2ccc(N3CC(/C=C/c4c(-c5ccccc5C(F)(F)F)noc4C4CC4)C3)cn2)c1` [Example 221] stands 56 nM.
Under setting [1], `COc1cc(C(=O)O)nc2ccc(N3CC4C(/C=C/c5c(-c6c(Cl)cncc6Cl)noc5C5CC5)C4C3)cc12` (stereo not shown) [Example 80] gave a concentration giving a half-maximal response (EC50) of 38 nM.
`O=C(O)c1cccc(N2CCC(/C=C/c3c(-c4c(Cl)cccc4Cl)noc3C3CC3)CC2)n1` [Example 13]: the EC50 under setting [1] came to 206 nM.
`O=C(O)c1cccc(-c2noc(N3CC4C(/C=C/c5c(-c6c(Cl)cncc6Cl)noc5C5CC5)C4C3)n2)c1` (stereo not shown) [Example 133, (E)-3-(5-(6-(2-(5-cyclopropyl-3-(3,5-dichloropyridin-4-yl)isoxazol-4-yl)vinyl)-3-azabicyclo[3.1.0]hexan-3-yl)-1,2,4-oxadiazol-3-yl)benzoic acid] yielded an EC50 under setting [2] of 1290 nM.
`O=C(O)c1cnc(N2CC3C(/C=C/c4c(-c5c(Cl)cccc5Cl)noc4C4CC4)C3C2)s1` (stereo not shown) [Example 86] yielded an EC50 under setting [1] of 1010 nM.
Turning to `O=C(O)c1ccc(N2CCC(/C=C/c3c(C4CC4)cnn3-c3c(Cl)cccc3Cl)CC2)nc1` [Example 11, (E)-6-(4-(2-(4-Cyclopropyl-1-(2,6-dichlorophenyl)-1H-pyrazol-5-yl)vinyl)piperidin-1-yl)nicotinic acid], the EC50 under setting [2] was determined as 148 nM.
In the case of `O=C(O)c1cc(C(F)(F)F)c2cc(N3CC4C(/C=C/c5c(-c6c(Cl)cncc6Cl)noc5C5CC5)C4C3)ccc2n1` (stereo not shown) [Example 72], under setting [1], the EC50 came out at 98 nM.
`COc1cc(C(=O)O)nc2ccc(N3CC(/C=C/c4c(-c5cccnc5C(F)(F)F)noc4C4CC4)C3)cc12` [Example 169]: a half-maximal response under setting [1] (EC50) required 223 nM.
The same measure, in the same setting: then `O=C(O)c1cnn(-c2ccc(N3CC(/C=C/c4c(-c5c(Cl)cncc5Cl)noc4C4CC4)C3)cc2)c1` [Example 220], with 107 nM.
`CS(=O)(=O)NC(=O)c1ccc(N2CC3C(/C=C/c4c(-c5c(Cl)cccc5Cl)noc4C4CC4)C3C2)cc1` (stereo not shown) [Example 71, (E)-4-(6-(2-(5-Cyclopropyl-3-(2,6-dichlorophenyl)isoxazol-4-yl)vinyl)-3-azabicyclo[3.1.0]hexan-3-yl)-N-(methylsulfonyl)benzamide]: under setting [2], the response was half-maximal at 83 nM (EC50).
Turning to `O=C(O)c1cc(C(F)(F)F)c2cc(N3CC4C(/C=C/c5c(-c6c(Cl)cccc6Cl)noc5C5CC5)C4C3)ccc2n1` (stereo not shown) [Example 52], the EC50 under setting [1] was 77 nM.
Same read-out and setting: then `O=C(O)c1cc(OC2CC(F)(F)C2)c2cc(N3CC(/C=C/c4c(-c5ccccc5C(F)(F)F)noc4C4CC4)C3)ccc2n1` [Example 152], with 228 nM.
Regarding `COc1cc(C(=O)O)cc(-c2nc(N3CC4C(/C=C/c5c(-c6c(Cl)cncc6Cl)noc5C5CC5)C4C3)ns2)c1` (stereo not shown) [Example 210, (E)-3-(3-(6-(2-(5-Cyclopropyl-3-(3,5-dichloropyridin-4-yl)isoxazol-4-yl)vinyl)-3-azabicyclo[3.1.0]hexan-3-yl)-1,2,4-thiadiazol-5-yl)-5-methoxybenzoic acid], the EC50 under setting [2] was determined as 670 nM.
In turn, `O=C(O)c1cccc(-c2nnc(N3CC4C(/C=C/c5c(-c6c(Cl)cncc6Cl)noc5C5CC5)C4C3)o2)c1` (stereo not shown) [Example 218] came in with an EC50 under setting [1] of 1600 nM.
Still for that read-out and setting: then `Cn1cc(C(=O)O)c(=O)c2ccc(N3CC4C(/C=C/c5c(-c6c(Cl)cncc6Cl)noc5C5CC5)C4C3)cc21` (stereo not shown) [Example 180], with 276 nM; and `O=C(O)c1cc(OC2CCC2)c2cc(N3CC4C(/C=C/c5c(-c6ccccc6C(F)(F)F)noc5C5CC5)C4C3)ccc2n1` (stereo not shown) [Example 130], with 50 nM.
The same measure, in the same setting: then `O=C(O)c1ccc(N2CC3C(/C=C/c4c(-c5c(Cl)cncc5Cl)noc4C4CC4)C3C2)nc1` (stereo not shown) [Example 102], with 1270 nM; and `O=C(O)c1ccc2nc(N3CC4C(/C=C/c5c(-c6c(Cl)cncc6Cl)noc5C5CC5)C4C3)ccc2c1` (stereo not shown) [Example 79], with 1160 nM; and `COc1nc(C(=O)O)cc2ccc(N3CC4C(/C=C/c5c(-c6c(Cl)cncc6Cl)noc5C5CC5)C4C3)cc12` (stereo not shown) [Example 122], with 126 nM.
On the same count and under the same terms, under `O=C(O)c1cc(OC2CCC2)c2cc(N3CC[C@@H](/C=C/c4c(-c5ccccc5C(F)(F)F)noc4C4CC4)C3)ccc2n1` [Example 147] stands 139 nM; under `O=C(O)c1cnc2cc(N3CC4C(/C=C/c5c(-c6ccccc6C(F)(F)F)noc5C5CC5)C4C3)ccc2n1` (stereo not shown) [Example 140], 142 nM.
Under setting [1], `O=C(O)c1nccc2cc(N3CC4C(/C=C/c5c(-c6c(Cl)cncc6Cl)noc5C5CC5)C4C3)ccc12` (stereo not shown) [Example 105] yielded a 50% effective concentration (EC50) of 310 nM.
Under setting [1], `O=C(O)c1cnc2cc(N3CCC(/C=C/c4c(-c5c(Cl)cccc5Cl)noc4C4CC4)CC3)ccc2c1` [Example 69] came in with an EC50 of 31 nM.
In the case of `CC(C)Oc1cc(C(=O)O)nc2ccc(N3CC(/C=C/c4c(-c5ccccc5C(F)(F)F)noc4C4CC4)C3)cc12` [Example 149], the response under setting [1] was half-maximal at 164 nM (EC50).

The values above are taken from patent US11168079B2, “Alkene compounds as farnesoid x receptor modulators” (BRISTOL-MYERS SQUIBB COMPANY, priority 2017, dated 2021).
